Measurements: patent US11844768B2, “Terameprocol and nordihydroguaiaretic acid (NDGA) derivatives as coronavirus anti-viral agents” (Erimos Pharmaceuticals, LLC, priority 2021, dated 2023)
Structures can show the parent of a compound that is named as a salt. Where two headings read alike, the source gives them in different places.

Legend:
[1] = tested on: HCoV-NL63; conditions: 48 hours; for cell toxicity resulting from the TMP treatment: LLC-MK2 cells
[2] = tested on: SARS-CoV-2-infected Calu-3 cells; test: Cell cytotoxicity (plaques, monoclonal antibody) of SARS-CoV-2-infected Calu-3 cells; format: cell-based, human; conditions: 48 hours, Calu-3, FIG. 6
Description: With reference to FIG. 6 (Example 4), the TMP-treatment protocol for the Vero E6 cells was repeated with Calu-3 cells (human non-small-cell lung cancer cells) infected with SARS-CoV-2. Infected Calu-3 cells without treatment were used as a negative control and infected Calu-3 cells treated with CM were used as a positive control. A monoclonal antibody was used to identify cell cytotoxicity.
(§1) Calu-3 human non-small-cell lung cancer cells were cultured as host cells for the SARS-CoV-2 coronavirus in 96-well cell culture plates. 500-1500 units of SARS-CoV-2 virus in Eagle's minimal essential medium (EMEM) with 10% Fetal Bovine Serum (FBS), L-glutamine, and Na-pyruvate phosphate buffered saline was introduced to the Vero E6 cell culture wells as described in Ogando et al., supra. […] Plaques were identified using a plaque assay with the mouse monoclonal antibody J2 (Ogando et al., supra). Viral RNA was also isolated from the media supernatant and virus copy number was determined by RT-PCR for estimation of virus copy number following treatment.
(§2) Stock solutions of TMP were prepared by dissolving TMP in 100% DMSO at 50 mM with warming at 70° C. for 3 hours. TMP was added to the SARS-CoV-2-infected Vero E6 cells in the following concentrations: 5 μM, 20 μM, and 40 μM. Untreated infected Vero E6 cells and infected Vero E6 treated with CM were used as negative and positive controls, respectively. 48 hours following treatment with TMP, 400 μL of supernatant was collected from each plate well and viral RNA (no cellular RNA was collected) and virus copy number were measured determined from the extracted DNA by the ORIG3N RT-PCR test. The assay was repeated two additional times.

[3] = tested on: NL63-infected LLC-MK2 cells; test: LDH release cytotoxicity assay on NL63-infected LLC-MK2 cells; format: cell-based, rhesus monkey; conditions: five days
Description: With reference to FIG. 2 (Example 2), the exposure time of TMP on NL63-infected LLC-MK2 cells was measured to determine if long-term exposure to TMP could result in cell cytotoxicity. Cytotoxicity to the host cells can be caused by viral infection, which causes cell lysis, or by toxicity of test compounds to host cells. Cytotoxicity is measured by the release of lactate dehydrogenase (LDH), a cellular housekeeping enzyme, and its conversion of a colored substrate in the final reaction. Cells that die or lyse release LDH into the extracellular milieu; thus, the more LDH that is released by dying cells, the higher the LDH reading.
LLC-MK2 cells were inoculated with NL63 as provided in Example 1. The cells were tested for cytotoxicity through the release of lactate dehydrogenase (LDH), the latter of which was measured and quantified with an LDH assay multiplate reader. The cytotoxicity assay was performed three times and values for each treatment group and controls were averaged across assays, as show in FIGS. 2 and 3.

[4] = tested on: SARS-CoV-2; format: cell-based; conditions: 48 hours, Calu-3, FIG. 6
[5] = tested on: SARS-CoV-2-infected Vero E6 cells; test: Cell cytotoxicity (cell lysis / plaques, monoclonal antibody) of SARS-CoV-2-infected Vero E6 cells; format: cell-based, African green monkey; conditions: 48 hours; for cell cytotoxicity (cell lysis): FIG. 5
Description: With reference to FIG. 5 (Example 3), Vero E6 were infected with SARS-CoV-2 virus, treated with 0.2 μM, 1.0 μM, 5.0 μM, 20 μM, and 80 μM of TMP, and tested for cell cytotoxicity using monoclonal antibodies after 48 hours. Infected Vero E6 cells without treatment were used as a negative control and infected Vero E6 cells treated with CM were used as a positive control. Here, the cells were tested for cytotoxicity via the formation of plaques identified with a monoclonal antibody.
as §1, with “Vero E6 African green monkey kidney epithelial” for “Calu-3 human non-small-cell lung cancer”, “Journal of General Virology (2020) (available at biorxiv.org/content/10.1101/2020.04.20.049924v1).” for “supra.”
as §2, with “concentrations: 0.2 μM, 1 μM,” for “concentrations:”, “and 80” for “and 40”, “measured” for “measured determined”, “RT-PCR test for the 1 μM, 5 μM, and 20 μM TMP-treatment wells as well as for the negative and positive controls. Separately, cell lysis was measured for all five TMP-treatment wells as well as for the negative and positive controls.” for “RT-PCR test.”, “times. FIGS. 4A-4C show the mean±SD of the number of copies of SARS-CoV-2 RNA measured from the cell supernatant for the three assay runs of the Vero E6 cells.” for “times.”

[6] = tested on: SARS-CoV-2; format: cell-based

COc1ccc(C[C@@H](C)[C@@H](C)Cc2ccc(OC)c(OC)c2)cc1OC [TMP, Tetra-O-methyl NDGA]
viral activity ([1]; 0.2 μM TMP, FIG. 1): partial reduction in viral activity
viral RNA copy number (mean+standard deviation) ([1]; 0.2 μM TMP, NL63-infected LLC-MK2 cells, FIG. 1, P=0.004 versus negative control): 50,882+2,296 copies
viral activity ([1]; 1 μM TMP, FIG. 1): almost no viral activity
cell toxicity resulting from the TMP treatment ([1]; 1 μM TMP): no discernable cell toxicity
viral activity ([1]; 5 μM TMP, FIG. 1): almost no viral activity
cell toxicity resulting from the TMP treatment ([1]; 5 μM TMP): no discernable cell toxicity
dose response of viral RNA ([1]; 0.2, 1 and 5 μM TMP, FIG. 1): linear response that plateaued at 1 μM TMP
cell cytotoxicity ([2]; 5 μM TMP): non-detectable cytotoxicity
cell cytotoxicity ([2]; 20 μM TMP): non-detectable cytotoxicity
cell cytotoxicity ([2]; 40 μM TMP): only slightly increased cytotoxicity
cell lysis (LDH release) ([3]; 0.2 μM TMP, FIG. 3): 1-2%
cell lysis (LDH release) ([3]; 5 μM TMP, FIG. 2): 10%
cell lysis (LDH release) ([3]; 5 μM TMP, FIG. 3): ~20%
cell lysis (LDH release) ([3]; 20 μM TMP, FIG. 2): 20-30%
cell lysis (LDH release), observation ([3]; 80 μM TMP, FIG. 2): cells separating from the plate
cell lysis (LDH release) ([3]; increased TMP concentration (between 0.2 and 5 μM; FIG. 3 series 0.2, 1, 5 μM)): approximately 8%
reduction in the mean number of copies of SARS-CoV-2 compared to the negative control ([4]; 5 μM TMP): 25%
viral replication ([4]; 20 μM TMP): almost zero viral replication
viral replication ([4]; 40 μM TMP): almost zero viral replication
cell cytotoxicity (cell lysis) ([5]; 0.2 μM TMP): no appreciable cytotoxic effects
cell cytotoxicity (cell lysis) ([5]; 1.0 μM TMP): no appreciable cytotoxic effects
cell cytotoxicity (cell lysis) ([5]; 5 μM TMP): no appreciable cytotoxic effects
cell cytotoxicity (cell lysis) ([5]; 20 μM TMP): reduced in comparison to the 80 μM treatment
cell toxicity resulting from the TMP treatment ([5]; 20 μM TMP, FIGS. 4B and 4C runs): no discernable cell toxicity
cell cytotoxicity (cell lysis) ([5]; 80 μM TMP): high percentage of cell lysis
viral activity ([6]; 1 μM TMP, 48 hours, FIGS. 4B and 4C): increase in viral activity
viral replication ([6]; 5 μM TMP, 48 hours, FIGS. 4B and 4C): zero viral replication
viral replication ([6]; 20 μM TMP, 48 hours, FIG. 4A): almost zero viral replication
viral replication ([6]; 20 μM TMP, 48 hours, FIGS. 4B and 4C): reduction in viral replication comparable to the CM-treated positive control
dose response of viral replication ([6]; FIG. 4A, 48 hours, Vero E6): linear dose response
optimal TMP treatment range ([6]; SARS-CoV-2-infected Vero E6 in vitro, FIGS. 4A-4C): 5 µM

CN(C)C(=O)COC(=O)Cc1ccc(OC(=O)c2ccc(NC(=N)N)cc2)cc1 [CM, camostat mesylate, reference compound]
cell toxicity (LDH release) ([3]; CM positive control, FIG. 2): no cell toxicity
viral replication ([4]; CM control): almost zero viral replication
cell cytotoxicity (cell lysis) ([5]; CM positive control): no appreciable cytotoxic effects
